Starred links: 1 amine or outer side, 2 acyl side, 3 side chain; linkers in the order of their positions; H or OH if unused. Non-standard residues stand in square brackets, D forms with d. Residues, ends and D or L forms follow the SMILES beside them. *: point of attachment. X7 = CC(=O)OC(c1ccccc1)[C@@H](C(=O)[*:2])N(C)[*:1]; NMePhe(2-F) = CN[C@@H](Cc1ccccc1F)C(=O)O; X1 = CC[C@@H](C)[C@@H](O[*:1])C(=O)[*:2]; NMeVal(β-OH) = CN[C@H](C(=O)O)C(C)(C)O; X4 = CC(O)[C@@H](C)C(O[*:1])C(=O)[*:2]; X6 = CC(CO)[C@@H](C(=O)[*:2])N(C)[*:1]; NMeaIle = CC[C@@H](C)[C@H](NC)C(=O)O; Phe(2-F) = N[C@@H](Cc1ccccc1F)C(=O)O; X5 = CN([C@@H](CCCO)C(=O)[*:2])[*:1]; NMeY = CN[C@@H](Cc1ccc(O)cc1)C(=O)O; NMeF = CN[C@@H](Cc1ccccc1)C(=O)O; aIle = CC[C@@H](C)[C@H](N)C(=O)O; Nva(5-OH) = N[C@@H](CCCO)C(=O)O; NMeL = CN[C@@H](CC(C)C)C(=O)O; NMeV = CN[C@H](C(=O)O)C(C)C; Thz = O=C(O)[C@@H]1CSCN1; Nva = CCC[C@H](N)C(=O)O; OBn = c1ccc(CO*)cc1; Sar = CNCC(=O)O

For the data set the following is noted: mouse, in vivo, ip, 100 mg/kg.
In the case of `CC[C@@H](C)[C@@H]1NC(=O)[C@@H]2CCCN2C(=O)[C@H](Cc2ccc(O)cc2)N(C)C(=O)[C@H](Cc2ccccc2)NC(=O)[C@H](C(C)C)N(C)C(=O)[C@@H]([C@H](C)CC)OC(=O)[C@H](C(C)(C)O)N(C)C(=O)[C@H](CC(C)C)NC(=O)[C@H](C(C)C)N(C)C1=O` [Compound 8] (cyclo(F[NMeY]P[aIle][NMeV]L[NMeVal(β-OH)][X1][NMeV])), the toxicity signs entry is recorded as “no toxicity signs”.
For `CCCC[C@@H]1NC(=O)[C@@H]2CCCN2C(=O)[C@H](Cc2ccccc2)N(C)C(=O)[C@H](Cc2ccccc2)NC(=O)[C@H](C(C)C)N(C)C(=O)[C@@H]([C@H](C)CC)OC(=O)[C@H](C(C)(C)O)N(C)C(=O)[C@H](CC(C)C)NC(=O)[C@H](C(C)C)N(C)C1=O` [Compound 11] (HELM PEPTIDE1{F.[meF].P.[Nle].[meV].L.[CN([C@H](C(=O)[*:2])C(C)(C)O)[*:1]].[CC[C@@H](C)[C@@H](O[*:1])C(=O)[*:2]].[meV]}$PEPTIDE1,PEPTIDE1,1:R1-9:R2$$$V2.0) the value was “no toxicity signs”; for `CC[C@@H](C)[C@@H]1NC(=O)[C@@H]2CSCN2C(=O)[C@H](Cc2ccccc2)N(C)C(=O)[C@H](Cc2ccccc2)NC(=O)[C@H](C(C)C)N(C)C(=O)[C@@H]([C@H](C)CC)OC(=O)[C@H](C(C)(C)O)N(C)C(=O)[C@H](CC(C)C)NC(=O)[C@H](C(C)C)N(C)C1=O` [Compound 10] (cyclo(F[NMeF][Thz][aIle][NMeV]L[NMeVal(β-OH)][X1][NMeV])), “no toxicity signs”.
As for `CC[C@@H](C)[C@@H]1NC(=O)[C@@H]2CCCN2C(=O)[C@H](Cc2ccccc2)N(C)C(=O)[C@H](Cc2ccccc2)NC(=O)[C@H](C(C)C)N(C)C(=O)[C@@H]([C@H](C)CC)OC(=O)[C@H](C(C)CO)N(C)C(=O)[C@H](CC(C)C)NC(=O)[C@H](C(C)C)N(C)C1=O` (stereo partly shown) [Compound 4] (cyclo(F[NMeF]P[aIle][NMeV]L[X6][X1][NMeV])), the toxicity signs entry is “no toxicity signs”.
As to `CC[C@@H](C)[C@@H]1NC(=O)[C@@H]2CCCN2C(=O)[C@H](C(OC(C)=O)c2ccccc2)N(C)C(=O)[C@H](Cc2ccccc2)NC(=O)[C@H](C(C)C)N(C)C(=O)[C@@H]([C@H](C)CC)OC(=O)[C@H](C(C)(C)O)N(C)C(=O)[C@H](CC(C)C)NC(=O)[C@H](C(C)C)N(C)C1=O` (stereo partly drawn) [Compound 15] (cyclo(F[X7]P[aIle][NMeV]L[NMeVal(β-OH)][X1][NMeV])), the toxicity signs result is given as “no toxicity signs”.
As to `CC[C@@H](C)[C@@H]1NC(=O)[C@@H]2CCCN2C(=O)CN(C)C(=O)[C@H](Cc2ccccc2)NC(=O)[C@H](C(C)C)N(C)C(=O)[C@@H]([C@H](C)CC)OC(=O)[C@H](C(C)(C)O)N(C)C(=O)[C@H](CC(C)C)NC(=O)[C@H](C(C)C)N(C)C1=O` [Compound 13] (cyclo(F[Sar]P[aIle][NMeV]L[NMeVal(β-OH)][X1][NMeV])), the toxicity signs result is given as “no toxicity signs”.
The value for `CC[C@@H](C)[C@@H]1NC(=O)[C@@H]2CCCN2C(=O)[C@H](Cc2ccccc2)N(C)C(=O)[C@H](Cc2ccccc2)NC(=O)[C@H](C(C)C)N(C)C(=O)[C@@H]([C@H](C)CC)OC(=O)[C@H](C(C)(C)O)N(C)C(=O)[C@H](CC(C)C)NC(=O)[C@H](CCCO)N(C)C1=O` [Compound 28, cyclo(L-aIle-L-HOMeNva-L-Leu-L-βHOMeVal-D-Hmp-L-MeVal-L-Phe-L-MePhe-L-Pro)] (cyclo(F[NMeF]P[aIle][X5]L[NMeVal(β-OH)][X1][NMeV])) was “no toxicity signs”; that for `CC[C@@H](C)[C@@H]1NC(=O)[C@@H]2CCCN2C(=O)[C@H](Cc2ccccc2)N(C)C(=O)[C@H](Cc2ccccc2)NC(=O)[C@H](C(C)C)N(C)C(=O)C([C@H](C)C(C)O)OC(=O)[C@H](C(C)(C)O)N(C)C(=O)[C@H](CC(C)C)NC(=O)[C@H](C(C)C)N(C)C1=O` (stereo partly drawn) [Compound 17] (cyclo(F[NMeF]P[aIle][NMeV]L[NMeVal(β-OH)][X4][NMeV])) was “no toxicity signs”.
For `CC[C@@H](C)[C@@H]1NC(=O)[C@@H]2CCCN2C(=O)[C@H](Cc2ccccc2)N(C)C(=O)[C@H](Cc2ccccc2)NC(=O)[C@H](C(C)C)N(C)C(=O)[C@@H]([C@H](C)CC)OC(=O)[C@H](C(C)(C)O)N(C)C(=O)[C@H](CC(C)C)NC(=O)[C@H]([C@H](C)CC)N(C)C1=O` [Compound 22, cyclo (L-aIle-L-MeaIle-L-Leu-L-βHOMeVal-D-Hmp-L-MeVal-L-Phe-L-MePhe-L-Pro)] (cyclo(F[NMeF]P[aIle][NMeaIle]L[NMeVal(β-OH)][X1][NMeV])) the value was “no toxicity signs”.
The value for `CC[C@@H](C)[C@@H]1NC(=O)[C@@H]2CCCN2C(=O)[C@H](Cc2ccccc2F)N(C)C(=O)[C@H](Cc2ccccc2F)NC(=O)[C@H](C(C)C)N(C)C(=O)[C@@H]([C@H](C)CC)OC(=O)[C@H](C(C)(C)O)N(C)C(=O)[C@H](CC(C)C)NC(=O)[C@H](C(C)C)N(C)C1=O` [Compound 7] (cyclo(L[NMeVal(β-OH)][X1][NMeV][Phe(2-F)][NMePhe(2-F)]P[aIle][NMeV])) was “no toxicity signs”; that for `CCC[C@@H]1NC(=O)[C@H](C(C)C)N(C)C(=O)[C@H]([C@H](C)CC)NC(=O)[C@@H]2CCCN2C(=O)[C@H](Cc2ccccc2)N(C)C(=O)[C@H](Cc2ccccc2)NC(=O)[C@H](C(C)C)N(C)C(=O)[C@@H]([C@H](C)CC)OC(=O)[C@H](C(C)(C)O)N(C)C1=O` [Compound 12] (cyclo(F[NMeF]P[aIle][NMeV][Nva][NMeVal(β-OH)][X1][NMeV])) was “no toxicity signs”; that for `CC[C@@H](C)[C@@H]1NC(=O)[C@@H]2CCCN2C(=O)[C@H](Cc2ccccc2)N(C)C(=O)[C@H](Cc2ccccc2)NC(=O)[C@H](C(C)C)N(C)C(=O)[C@@H]([C@H](C)CC)OC(=O)[C@H](C(C)(C)O)N(C)C(=O)[C@H]([C@H](C)CC)NC(=O)[C@H](C(C)C)N(C)C1=O` [Compound 24, cyclo(L-aIle-L-MeVal-L-aIle-L-βHOMeVal-D-Hmp-L-MeVal-L-Phe-L-MePhe-L- Pro)] (cyclo(F[NMeF]P[aIle][NMeV][aIle][NMeVal(β-OH)][X1][NMeV])) was “no toxicity signs”.
For `CC[C@@H](C)[C@H]1OC(=O)[C@H](C(C)(C)O)N(C)C(=O)[C@H](CC(C)C)NC(=O)[C@H](C(C)C)N(C)C(=O)[C@H](CC(C)C)NC(=O)[C@@H]2CCCN2C(=O)[C@H](Cc2ccccc2)N(C)C(=O)[C@H](Cc2ccccc2)NC(=O)[C@H](C(C)C)N(C)C1=O` [Compound 6] (HELM PEPTIDE1{F.[meF].P.L.[meV].L.[CN([C@H](C(=O)[*:2])C(C)(C)O)[*:1]].[CC[C@@H](C)[C@@H](O[*:1])C(=O)[*:2]].[meV]}$PEPTIDE1,PEPTIDE1,1:R1-9:R2$$$V2.0), the toxicity signs entry is reported as “no toxicity signs”.
The value for `CC[C@@H](C)[C@@H]1NC(=O)[C@@H]2CCCN2C(=O)[C@H](Cc2ccccc2)N(C)C(=O)[C@H](Cc2ccccc2)NC(=O)[C@H](C(C)C)N(C)C(=O)[C@@H]([C@H](C)CC)OC(=O)[C@H]([C@@H](C)O)N(C)C(=O)[C@H](CC(C)C)NC(=O)[C@H](C(C)C)N(C)C1=O` [Compound 19, Cyclo(L-aIle-L-MeVal-L-Leu-L-MeThr-D-Hmp-L-MeVal-L-Phe-L-MePhe-L-Pro)] (HELM PEPTIDE1{F.[meF].P.[CC[C@@H](C)[C@H](N[*:1])C(=O)[*:2]].[meV].L.[meT].[CC[C@@H](C)[C@@H](O[*:1])C(=O)[*:2]].[meV]}$PEPTIDE1,PEPTIDE1,1:R1-9:R2$$$V2.0) was “no toxicity signs”; that for `CC[C@@H](C)[C@H]1OC(=O)[C@H](C(C)(C)O)N(C)C(=O)[C@H](CC(C)C)NC(=O)[C@H](C(C)C)N(C)C(=O)[C@H](C(C)C)NC(=O)[C@@H]2CCCN2C(=O)[C@H](Cc2ccccc2)N(C)C(=O)[C@H](Cc2ccccc2)NC(=O)[C@H](C(C)C)N(C)C1=O` [Compound 3] (HELM PEPTIDE1{F.[meF].P.V.[meV].L.[CN([C@H](C(=O)[*:2])C(C)(C)O)[*:1]].[CC[C@@H](C)[C@@H](O[*:1])C(=O)[*:2]].[meV]}$PEPTIDE1,PEPTIDE1,1:R1-9:R2$$$V2.0) was “no toxicity signs”.
The value for `CC(C)C[C@@H]1NC(=O)[C@H](C(C)C)N(C)C(=O)[C@H](C(C)C)NC(=O)[C@@H]2CCCN2C(=O)[C@H](Cc2ccccc2)N(C)C(=O)[C@H](Cc2ccccc2)NC(=O)[C@H](C(C)C)N(C)C(=O)[C@@H](C(C)C)OC(=O)[C@H](C(C)(C)O)N(C)C1=O` [Compound 25] (HELM PEPTIDE1{F.[meF].P.V.[meV].L.[CN([C@H](C(=O)[*:2])C(C)(C)O)[*:1]].[CC(C)[C@@H](O[*:1])C(=O)[*:2]].[meV]}$PEPTIDE1,PEPTIDE1,1:R1-9:R2$$$V2.0) was “no toxicity signs”.
The value for `CC[C@@H](C)[C@@H]1NC(=O)[C@@H]2CCCN2C(=O)[C@H](Cc2ccccc2)N(C)C(=O)[C@H](Cc2ccccc2)NC(=O)[C@H](C(C)C)N(C)C(=O)[C@@H]([C@H](C)CC)OC(=O)[C@H](C(C)(C)O)N(C)C(=O)[C@H](CCCO)NC(=O)[C@H](C(C)C)N(C)C1=O` [Compound 39, cyclo(L-aIle-L-MeVal-L-HONva-L-βHOMeVal-D-Hmp-L-MeVal-L-Phe-L-MePhe-L-Pro)] (cyclo(F[NMeF]P[aIle][NMeV][Nva(5-OH)][NMeVal(β-OH)][X1][NMeV])) was “no toxicity signs”; that for `CC[C@@H](C)[C@@H]1NC(=O)[C@@H]2CCCN2C(=O)[C@H](Cc2ccccc2)N(C)C(=O)[C@H](Cc2ccccc2)NC(=O)[C@H](C(C)C)N(C)C(=O)[C@@H]([C@H](C)CC)OC(=O)[C@H](C(C)(C)O)N(C)C(=O)[C@H](CC(C)C)NC(=O)[C@H](CC(C)C)N(C)C1=O` [Compound 23, cyclo(L-aIle-L-MeLeu-L-Leu-L-βHOMeVal-D-Hmp-L-MeVal-L-Phe-L-MePhe-L-Pro)] (cyclo(F[NMeF]P[aIle][NMeL]L[NMeVal(β-OH)][X1][NMeV])) was “no toxicity signs”; that for `CC[C@@H](C)[C@H]1OC(=O)[C@H](C(C)(C)O)N(C)C(=O)[C@H](CC(C)C)NC(=O)[C@H](C(C)C)N(C)C(=O)[C@H](CCC(=O)OCc2ccccc2)NC(=O)[C@@H]2CCCN2C(=O)[C@H](Cc2ccccc2)N(C)C(=O)[C@H](Cc2ccccc2)NC(=O)[C@H](C(C)C)N(C)C1=O` [Compound 26, cyclo(L-GluOR-L-MeVal-L-Leu-L-βHOMeVal-D-Hmp-L-MeVal-L-Phe-L-MePhe-L- Pro) (R: Bzl)] (cyclo(E(OBn)[NMeV]L[NMeVal(β-OH)][X1][NMeV]F[NMeF]P)) was “no toxicity signs”.

Source of the values: patent US5633345A, “Cyclic peptides” (priority 1992, dated 1997).
